Source: US5459152A, “Platelet activating factor antagonists” (Abbott Laboratories, priority 1993, dated 1995)
Counter-ions that a name gives are not always drawn. Like-named read-outs stand apart in the source and are kept apart here.

Target: T1, PAF receptor (Oryctolagus cuniculus, UniProt G1TEI7)
T1 construct: platelet membranes where prepared by centrifugation and washing; tissue Pel-Freez (Rogers, AR) (whole rabbit blood); host or cells: rabbit platelet membranes
Assay: PAF receptor binding assay ([3H]C18-PAF, rabbit platelet membranes)
Conditions: read-out: PAF Receptor Binding Activity K1
Description: The ability of representative compounds of the present invention to inhibit PAF activity was determined in an in vitro test using the following method.
Citrated whole rabbit blood was obtained from Pel-Freez (Rogers, AR). Rabbit platelets where prepared by centrifugation and washing. The platelets where lysed by freeze-thawing and sonication; platelet membranes where prepared by centrifugation and washing. Final membrane preparations where stored frozen in 10 mM Tris/5 mM MgCl2 /2 mM EDTA (TME buffer, pH 7.0) with 0.25 M sucrose added for membrane stabilization.
The final volume of the assay was 100 μl. The assay was conducted in Millititre-GV™ (Millipore Corp.) filtration plates; incubation time was for 60 minutes at room temperature (22°-23° C.). "Specific binding" was operationally defined as the arithmetic difference between "total binding" of 0.6 nM [^3 H]C18 -PAF (in the absence of added PAF) and "nonspecific binding" (in the presence of 1 μM PAF). After the prescribed incubation, platelet membranes where filtered under vacuum and washed with 1 millilitre of "binding buffer". The filters was dried and removed. The bound radioactivity was quantitated with a Berthold TLC-Linear Analyzer model LB2842.
Experiments where repeated at least once.

[1] = inhibition of specific binding of 0.6 nM [3H]C18-PAF to rabbit platelet membranes, 60 min, room temperature, Ki calculated from IC50 by Cheng and Prusoff

T1 sequence (G1TEI7 1-342): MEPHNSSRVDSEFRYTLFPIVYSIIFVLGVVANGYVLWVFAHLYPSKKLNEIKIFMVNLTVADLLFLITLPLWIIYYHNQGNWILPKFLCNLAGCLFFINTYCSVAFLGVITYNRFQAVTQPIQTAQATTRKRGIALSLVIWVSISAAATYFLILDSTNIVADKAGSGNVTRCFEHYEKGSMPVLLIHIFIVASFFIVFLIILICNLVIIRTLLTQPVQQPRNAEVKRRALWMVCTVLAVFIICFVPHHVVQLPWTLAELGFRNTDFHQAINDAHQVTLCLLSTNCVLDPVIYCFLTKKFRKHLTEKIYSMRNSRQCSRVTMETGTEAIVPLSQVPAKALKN

Row | Structure (SMILES) | Ki | Ki [1]
1 | CNC(=O)Cn1cc(C(=O)c2ccn3c2CSC3c2cccnc2)c2ccc(-c3ccc(F)cc3)cc21 (centres unmarked) [Example 81, 3-(Pyridin-3-yl)-7-[1-(2-N-methylcarbamoylmethyl)-6-(4-fluorophenyl)indol-3-ylcarbonyl]-1H,3H-pyrrolo[1,2-c]thiazole] | 1.12 nM | –
2 | O=C(c1ccn2c1C[S+]([O-])C2c1cccnc1)c1c[nH]c2ccccc12 (centres unmarked) [Example 14, 2-Oxide-3-(pyridin-3-yl)-7-(indol-3-ylcarbonyl)-1H,3H-pyrrolo[1,2-c]thiazole] | 2400 nM | –
3 | NCCn1cc(C(=O)c2ccn3c2CSC3c2cccnc2)c2ccc(-c3ccc(F)cc3)cc21 (centres unmarked) [Example 70, 3-(Pyridin-3-yl)-7-[1-(2-aminoethyl)-6-(4-fluorophenyl)indol-3-ylcarbonyl]-1H,3H-pyrrolo[1,2-c]thiazole Hydrochloride] | – | 2.6 nM
4 | COC(=O)CCn1cc(C(=O)c2ccn3c2CSC3c2cccnc2)c2ccc(-c3ccc(F)cc3)cc21 (centres unmarked) [Example 46, 3-(Pyridin-3-yl)-7-[1-(2-carbomethoxyethyl)-6-(4-fluorophenyl)indol-3-ylcarbonyl]-1H,3H-pyrrolo[1,2-c]thiazole] | 10 nM | –
5 | O=C(c1ccn2c1CSC2c1cccnc1)c1c[nH]c2cc(-c3cccnc3)ccc12 (centres unmarked) [Example 41] | 2000 nM | –
6 | CN(C)C(=O)n1cc(C(=O)c2ccn3c2CSC3c2cccnc2)c2ccc(-c3cccc(S(N)(=O)=O)c3)cc21 (centres unmarked) [Example 80, 3-(Pyridin-3-yl)-7-[1-N,N-dimethylcarbamoyl-6-(3-aminosulfonylphenyl)indol-3-ylcarbonyl]-1H,3H-pyrrolo[1,2-c]thiazole] | – | 45 nM
7 | NCCn1cc(C(=O)c2ccn3c2CSC3c2ccc[n+]([O-])c2)c2ccc(-c3ccc(F)cc3)cc21 (centres unmarked) [Example 90, 3-(1-Oxide-pyridin-3-yl)-7-[1-(2-aminoethyl)-6-(4-fluorophenyl)indol-3-ylcarbonyl]-1H,3H-pyrrolo[1,2-c]thiazole] | 480 nM | –
8 | O=C(c1ccn2c1CSC2c1cccnc1)c1c[nH]c2cc(Cl)ccc12 (centres unmarked) [Example 47, 3-(Pyridin-3-yl)-7-(6-chloroindol-3-ylcarbonyl)-1H,3H-pyrrolo[1,2-c]thiazole] | 590 nM | –
9 | CN(C)C(=O)Cn1cc(C(=O)c2ccn3c2CSC3c2cccnc2)c2ccc(-c3ccc(F)cc3)cc21 (centres unmarked) [Example 53, 3-(Pyridin-3-yl)-7-[1-(2-N,N-dimethylcarbamoylmethyl)-6-(4-fluorophenyl)indol-3-ylcarbonyl]-1H,3H-pyrrolo[1,2-c]thiazole] | 0.7 nM | –
10 | CC1(C)SC(c2cccnc2)n2ccc(C(=O)c3c[nH]c4ccccc34)c21 (centres unmarked) [Example 17, 1,1-Dimethyl-3-(pyridin-3-yl)-7-(indol-3-ylcarbonyl)-1H,3H-pyrrolo[1,2-c]thiazole] | 1200 nM | –
11 | CC(C)(C)OC(=O)n1cc(C(=O)c2ccn3c2C[S+]([O-])C3c2cccnc2)c2ccccc21 (centres unmarked) [Example 13, 2-Oxide-3-(pyridin-3-yl)-7-(1-tert-butyloxycarbonylindol-3-ylcarbonyl)-1H,3H-pyrrolo[1,2-c]thiazole] | 2200 nM | –
12 | O=C(c1ccn2c1COC2c1cccnc1)c1c[nH]c2ccccc12 (centres unmarked) [Example 15, 3-(Pyridin-3-yl)-7-(indol-3-ylcarbonyl)-1H,3H-pyrrolo[1,2-c]oxazole] | 5600 nM | –
13 | N#CCn1cc(C(=O)c2ccn3c2CSC3c2cccnc2)c2ccc(-c3ccc(F)cc3)cc21 (centres unmarked) [Example 94, 3-(Pyridin-3-yl)-7-[1-cyanomethyl-6-(4-fluorophenyl)indol-3-ylcarbonyl]-1H,3H-pyrrolo[1,2-c]thiazole] | 40 nM | –

Now from value to molecule, other results behind:

Row | Ki | Structure (SMILES) | Ki [1]
14 | 2.2 nM | CN(C)C(=O)n1cc(C(=NN)c2ccn3c2CSC3c2cccnc2)c2ccc(-c3ccc(F)cc3)cc21 (centres unmarked) [Example 104] | –
15 | 9 nM | CNC(=O)n1cc(C(=O)c2ccn3c2CSC3c2cccnc2)c2ccc(OCc3ccccc3)cc21 (centres unmarked) [Example 22, 3-(Pyridin-3-yl)-7-(1-N-methylcarbamoyl-6-phenylmethoxyindol-3-ylcarbonyl)-1H,3H-pyrrolo[1,2-c]thiazole] | –
16 | 135 nM | CNC(=O)n1cc(C(=O)c2ccn3c2CSC3c2cccnc2)c2ccc(-c3ccccc3)cc21 (centres unmarked) [Example 30, 3-(Pyridin-3-yl)-7-(1-N-methylcarbamoyl-6-phenylindol-3-ylcarbonyl)-1H,3H-pyrrolo[1,2-c]thiazole] | –
17 | 10.7 nM | ON=C(c1ccn2c1CSC2c1cccnc1)c1c[nH]c2cc(-c3ccc(F)cc3)ccc12 (centres unmarked) [Example 83, 3-(Pyridin-3-yl)-7-[6-(4-fluorophenyl)indol-3-ylcarbonyloxime]-1H,3H-pyrrolo[1,2-c]thiazole] | –
18 | 90 nM | O=C(c1ccn2c1CSC2c1cccnc1)c1c[nH]c2c(OCc3ccccc3)cccc12 (centres unmarked) [Example 5, 3(Pyridin-3-yl)-7-(7-phenylmethoxyindol-3-yl)carbonyl-1H,3H-pyrrolo[1,2-c]thiazole] | –
19 | 4.1 nM | COc1ccc(-c2ccc3c(C(=O)c4ccn5c4CSC5c4ccc[n+]([O-])c4)cn(C(=O)N(C)C)c3c2)cc1 (centres unmarked) [Example 45, 3-(1-Oxide-pyridin-3-yl)-7-[1-N,N-dimethylcarbamoyl-6-(4-methoxyphenyl)indol-3-ylcarbonyl]-1H,3H-pyrrolo[1,2-c]thiazole] | –
20 | 64 nM | O=C(c1ccn2c1CSC2c1cccnc1)c1c[nH]c2cc(OCc3ccccc3)ccc12 (centres unmarked) [Example 4, 3-(Pyridin-3-yl)-7-(6-phenylmethoxyindol-3-yl)carbonyl-1H,3H-pyrrolo[1,2-c]thiazole] | –
21 | 16 nM | CN(C)C(=O)n1cc(C(=O)c2ccn3c2CSC3c2cccnc2)c2ccc(-c3ccccc3)cc21 (centres unmarked) [Example 52, 3-(Pyridin-3-yl)-7-(1-N,N-dimethylcarbamoyl-6-phenylindol-3-ylcarbonyl)-1H,3H-pyrrolo[1,2-c]thiazole Hydrochloride] | –
22 | 6.9 nM | CN(C)CCN(C)C(=O)n1cc(C(=O)c2ccn3c2CSC3c2cccnc2)c2ccc(-c3ccc(F)cc3)cc21 (centres unmarked) [Example 84, 3-(Pyridin-3-yl)-7-[1-(N-methyl-N-(dimethylaminoethyl))carbamoyl-6-(4-fluorophenyl)indol-3-ylcarbonyl]-1H,3H-pyrrolo[1,2-c]thiazole] | –
23 | 51 nM | CN(C)C(=O)n1cc(C(=O)c2ccn3c2C(C)(C)SC3c2cccnc2)c2ccc(-c3ccccc3)cc21 (centres unmarked) [Example 24, 1,1-Dimethyl-3-(pyridin-3-yl)-7-(1-N,N-dimethylcarbamoyl-6-phenylindol-3-ylcarbonyl)-1H,3H-pyrrolo[1,2-c]thiazole] | –
24 | 85 nM | CN(C)C(=O)n1cc(C(=O)c2ccn3c2C[S+]([O-])C3c2ccc[n+]([O-])c2)c2ccc(-c3ccc(F)cc3)cc21 (centres unmarked) [Example 103, 2-Oxide-3-(1-oxide-pyridin-3-yl)-7-[1-N,N-dimethylcarbamoyl-6-(4-fluorophenyl)indole-3-ylcarbonyl]-1H,3H-pyrrolo[1,2-c]thiazole] | –
25 | 49 nM | Cn1cc(C(=O)c2ccn3c2CSC3c2ccc[n+]([O-])c2)c2ccc(OCc3ccccc3)cc21 (centres unmarked) [Example 58, 3-(1-Oxide-pyridin-3-yl)-7-(1-methyl-6-phenylmethoxyindol-3-ylcarbonyl)-1H,3H-pyrrolo[1,2-c]thiazole] | –
26 | 0.95 nM | CN(C)C(=O)n1cc(C(=O)c2ccn3c2CSC3c2cccnc2)c2ccc(-c3cccs3)cc21 (centres unmarked) [Example 101, 3-(Pyridin-3-yl)-7-(1-N,N-dimethylcarbamoyl-6-thiophen-2-ylindol-3-ylcarbonyl)-1H,3H-pyrrolo[1,2-c]thiazole] | –
27 | 150 nM | CNC(=O)n1cc(C(=O)c2ccn3c2C(C)(C)SC3c2cccnc2)c2ccc(-c3ccc(OC)cc3)cc21 (centres unmarked) [Example 32, 1,1-Dimethyl-3-(pyridin-3-yl)-7-[1-N-methylcarbamoyl-6-(4-methoxyphenyl)indol-3-ylcarbonyl]-1H,3H-pyrrolo[1,2-c]thiazole] | –
28 | 23 nM | CN(C)C(=O)n1cc(C(=O)c2ccn3c2CSC3c2cccnc2)c2ccc(-c3ccccc3)cc21 (centres unmarked) [Example 12, 3-(Pyridin-3-yl)-7-(1-N,N-dimethylcarbamoyl-6-phenylindol-3-yl)carbonyl-1H,3H-pyrrolo[1,2-c]thiazole] | –
29 | 95 nM | CN(C)C(=O)n1cc(C(=O)c2ccn3c2C[S+]([O-])C3c2cccnc2)c2ccc(-c3ccccc3)cc21 (centres unmarked) [Example 23, 2-Oxide-3-(pyridin-3-yl)-7-(1-N,N-dimethylcarbamoyl-6-phenyllindol-3-ylcarbonyl)-1H,3H-pyrrolo[1,2-c]thiazole] | –
30 | 17 nM | CN(C)C(=O)n1cc(C(=O)c2ccn3c2CSC3c2ccc[n+]([O-])c2)c2ccc(-c3ccccc3)cc21 (centres unmarked) [Example 54, 3-(1-Oxide-pyridin-3-yl)-7-(1-N,N-dimethylcarbamoyl-6-phenylindol-3-ylcarbonyl)-1H,3H-pyrrolo[1,2-c]thiazole hydrochloride] | –
31 | 6.1 nM | NC(=O)n1cc(C(=O)c2ccn3c2CSC3c2cccnc2)c2ccc(-c3ccc(F)cc3)cc21 (centres unmarked) [Example 76, 3-(Pyridin-3-yl)-7-[1-carbamoyl-6-(4-fluorophenyl)indol-3-ylcarbonyl]-1H,3H-pyrrolo[1,2-c]thiazole] | –
32 | 55 nM | COc1ccc(-c2ccc3c(C(=O)c4ccn5c4C(C)(C)SC5c4cccnc4)cn(C(=O)N(C)C)c3c2)cc1 (centres unmarked) [Example 26, 1,1-Dimethyl-3-Dimethyl-3-(pyridin-3-yl)-7-[1-N,N-dimethylcarbamoyl-6-(4-methoxyphenyl)indol-3-ylcarbonyl]-1H,3H-pyrrolo[1,2-c]thiazole] | –
